For the first assay, the target named is GST tagged truncated human mutant G2019S LRRK2 (Homo sapiens (Human), UniProt Q5S007, G2019S). Put plainly: LRRK2 Km ATP LanthaScreen Assay. Type of assay: biochemical. The settings on record: G2019S LRRK2, 134 μM ATP (Km ATP), mean values. The gist of the method: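 Enzyme (GST-tagged, truncated) was preincubated with compound for 15 min at RT in 50 mM Tris pH 8.5, 10 mM MgCl2, 0.01% Brij-35, 1 mM EGTA, 2 mM DTT and 0.05 mM orthovanadate. Fluorescein-LRRKtide and 134 μM ATP (Km) were then added for 90 min. EDTA and Tb-anti-pERM antibody stopped the reaction; the TR-FRET 520/495 ratio gave 4-parameter IC50s, reported as mean pIC50.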
GST tagged truncated human mutant G2019S LRRK2, sequence (Q5S007 970-2527 G2019S): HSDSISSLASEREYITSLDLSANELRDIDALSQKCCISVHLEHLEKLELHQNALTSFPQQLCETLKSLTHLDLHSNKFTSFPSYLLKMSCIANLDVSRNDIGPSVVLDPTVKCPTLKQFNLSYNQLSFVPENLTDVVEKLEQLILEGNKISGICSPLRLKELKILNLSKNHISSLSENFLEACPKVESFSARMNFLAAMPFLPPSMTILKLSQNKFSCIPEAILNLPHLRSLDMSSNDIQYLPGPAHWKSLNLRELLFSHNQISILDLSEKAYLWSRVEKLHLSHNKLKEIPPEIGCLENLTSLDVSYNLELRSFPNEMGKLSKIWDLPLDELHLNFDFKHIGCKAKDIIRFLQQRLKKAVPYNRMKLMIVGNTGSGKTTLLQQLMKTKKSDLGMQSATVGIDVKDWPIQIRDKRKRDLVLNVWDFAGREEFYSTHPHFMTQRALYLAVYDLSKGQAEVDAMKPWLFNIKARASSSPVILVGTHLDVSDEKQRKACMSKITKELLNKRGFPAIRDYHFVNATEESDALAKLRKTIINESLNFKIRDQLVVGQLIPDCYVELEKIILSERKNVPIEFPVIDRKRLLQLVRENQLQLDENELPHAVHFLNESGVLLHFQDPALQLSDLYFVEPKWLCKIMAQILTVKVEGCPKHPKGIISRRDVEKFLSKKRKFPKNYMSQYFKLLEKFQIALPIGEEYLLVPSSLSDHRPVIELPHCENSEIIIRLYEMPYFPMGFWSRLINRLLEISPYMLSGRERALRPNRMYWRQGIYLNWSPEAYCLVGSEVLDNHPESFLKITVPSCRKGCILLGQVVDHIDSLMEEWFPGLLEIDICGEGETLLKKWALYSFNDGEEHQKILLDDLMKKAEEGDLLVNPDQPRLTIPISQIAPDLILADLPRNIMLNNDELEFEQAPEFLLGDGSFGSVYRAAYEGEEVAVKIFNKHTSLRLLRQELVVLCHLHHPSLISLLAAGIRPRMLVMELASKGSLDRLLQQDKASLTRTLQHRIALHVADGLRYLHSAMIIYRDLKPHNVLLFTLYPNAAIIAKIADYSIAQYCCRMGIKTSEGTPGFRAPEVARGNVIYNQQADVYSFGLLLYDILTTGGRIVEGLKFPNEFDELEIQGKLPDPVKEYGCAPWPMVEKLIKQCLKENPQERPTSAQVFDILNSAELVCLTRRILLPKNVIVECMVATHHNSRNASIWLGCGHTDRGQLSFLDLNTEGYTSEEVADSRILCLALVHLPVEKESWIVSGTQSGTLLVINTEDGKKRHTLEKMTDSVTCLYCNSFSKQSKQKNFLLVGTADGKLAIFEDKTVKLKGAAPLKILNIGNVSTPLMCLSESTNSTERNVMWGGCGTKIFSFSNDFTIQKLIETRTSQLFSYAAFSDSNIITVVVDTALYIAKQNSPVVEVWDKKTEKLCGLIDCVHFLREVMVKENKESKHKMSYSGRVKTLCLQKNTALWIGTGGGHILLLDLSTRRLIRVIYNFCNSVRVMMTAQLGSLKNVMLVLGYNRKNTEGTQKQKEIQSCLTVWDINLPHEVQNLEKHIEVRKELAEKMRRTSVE
For orientation: TR-FRET usually uses a lanthanide donor and a delayed reading to cut background.
As to `Cc1c(Nc2ncc3cc(Cl)c(C4CCN([C@@]5(C)COC[C@H]5O)CC4)cc3n2)cnn1C` (single isomer, unassigned) [Ex-2.65, (3S,4S) or (3R,4R) 4-(4-{6-chloro-2-[(1,5-dimethyl-1H-pyrazol-4-yl)amino]quinazolin-7-yl}piperidin-1-yl)-4-methyloxolan-3-ol], the “LRRK2 pIC50” value was found to be 7.84.

As for `Cn1ncc(Nc2ncc3cc(Cl)c(C4CCN([C@H]5COC[C@H]5O)CC4)cc3n2)c1Cl` (single isomer, unassigned) [Ex-2.66, (3S,4S) or (3R,4R) 4-(4-{6-chloro-2-[(5-chloro-1-methyl-1H-pyrazol-4-yl)amino]quinazolin-7-yl}piperidin-1-yl)oxolan-3-ol], the “LRRK2 pIC50” value was more than 9.20.

With `Cc1c(Nc2ncc3cc(Cl)c(C4CCN([C@H]5COC[C@H]5O)CC4)cc3n2)cnn1C` (single isomer, unassigned) [Ex-2.67, (3S,4S) or (3R,4R) 4-(4-{6-chloro-2-[(1,5-dimethyl-1H-pyrazol-4-yl)amino]quinazolin-7-yl}piperidin-1-yl)oxolan-3-ol], the “LRRK2 pIC50” value is reported as more than 9.20.

Turning to `Cc1cc(Nc2ncc3cc(Cl)c(C4CCN([C@H]5COC[C@H]5O)CC4)cc3n2)n(C)n1` (single isomer, unassigned) [Ex-2.68, (3S,4S) or (3R,4R) 4-(4-{6-chloro-2-[(1,3-dimethyl-1H-pyrazol-5-yl)amino]quinazolin-7-yl}piperidin-1-yl)oxolan-3-ol], the “LRRK2 pIC50” value is more than 9.20.

Turning to `[2H]C([2H])([2H])n1nc(C)cc1Nc1ncc2cc(Cl)c(C3CCN([C@H]4COC[C@H]4O)CC3)cc2n1` (single isomer, unassigned) [Ex-2.69, (3S,4S) or (3R,4R) 4-(4-(6-chloro-2-((3-methyl-1-(methyl-d3)-1H-pyrazol-5-yl)amino)quinazolin-7-yl)piperidin-1-yl)tetrahydrofuran-3-ol], the “LRRK2 pIC50” value was found to be 8.21.

Consider `[2H]C([2H])([2H])n1ncc(Nc2ncc3cc(Cl)c(C4CCN([C@H]5COC[C@H]5O)CC4)cc3n2)c1Cl` (single isomer, unassigned) [Ex-2.70, (3S,4S) or (3R,4R) 4-(4-(6-chloro-2-((5-chloro-1-(methyl-d3)-1H-pyrazol-4-yl)amino)quinazolin-7-yl)piperidin-1-yl)tetrahydrofuran-3-ol], for which the “LRRK2 pIC50” value is recorded as more than 9.20.

In the case of `Cc1c(Nc2ncc3cc(Cl)c(C4CCN([C@@H]5COC[C@@H]5O)CC4)cc3n2)cnn1C(C)(C)C#N` (single isomer, unassigned) [Ex-2.74, (3S,4S) or (3R,4R) 2-[4-({6-chloro-7-[1-(4-hydroxyoxolan-3-yl)piperidin-4-yl]quinazolin-2-yl}amino)-5-methyl-1H-pyrazol-1-yl]-2-methylpropanenitrile], the “LRRK2 pIC50” value was more than 9.20.

As to `Cc1cc(Nc2ncc3cc(Cl)c(C4CCN([C@@H]5COC[C@@H]5O)CC4)cc3n2)n(C2CC2)n1` (single isomer, unassigned) [Ex-2.75, (3S,4S) or (3R,4R)4-(4-{6-chloro-2-[(1-cyclopropyl-3-methyl-1H-pyrazol-5-yl)amino]quinazolin-7-yl}piperidin-1-yl)oxolan-3-ol], the “LRRK2 pIC50” value was found to be 8.63.

For the compound `Cn1ncc(Nc2ncc3cc(Cl)c(C4CCN([C@]5(C)COC[C@@H]5O)CC4)cc3n2)c1Cl` (single isomer, unassigned) [Ex-2.76, (3S,4S) or (3R,4R) 4-(4-(6-chloro-2-((5-chloro-1-methyl-1H-pyrazol-4-yl)amino)quinazolin-7-yl)piperidin-1-yl)-4-methyltetrahydrofuran-3-ol], the “LRRK2 pIC50” value is given as 7.76.

As for `Cc1c(Nc2ncc3cc(Cl)c(C4CCN([C@]5(C)COC[C@@H]5O)CC4)cc3n2)cnn1C` (single isomer, unassigned) [Ex-2.77, (3S,4S) or (3R,4R) 4-(4-{6-chloro-2-[(1,5-dimethyl-1H-pyrazol-4-yl)amino]quinazolin-7-yl}piperidin-1-yl)-4-methyloxolan-3-ol], the “LRRK2 pIC50” value is given as 8.01.

Turning to `Cc1cc2cnc(Nc3cnn(C)c3Cl)nc2cc1C1CCN([C@@H]2COC[C@@H]2O)CC1` (single isomer, unassigned) [Ex-2.78, (3S,4S) or (3R,4R) 4-(4-{2-[(5-chloro-1-methyl-1H-pyrazol-4-yl)amino]-6-methylquinazolin-7-yl}piperidin-1-yl)oxolan-3-ol], the “LRRK2 pIC50” value is more than 9.20.

In the case of `Cc1cc2cnc(Nc3cnn(C)c3C)nc2cc1C1CCN([C@@H]2COC[C@@H]2O)CC1` (single isomer, unassigned) [Ex-2.79, (3S,4S) or (3R,4R) 4-(4-{2-[(1,5-dimethyl-1H-pyrazol-4-yl)amino]-6-methylquinazolin-7-yl}piperidin-1-yl)oxolan-3-ol], the “LRRK2 pIC50” value is reported as more than 9.20.

Consider `Cc1cc2cnc(Nc3cnn(C)c3Cl)nc2cc1C1CCN([C@]2(C)COC[C@@H]2O)CC1` (single isomer, unassigned) [Ex-2.80, (3S,4S) or (3R,4R) 4-(4-{2-[(5-chloro-1-methyl-1H-pyrazol-4-yl)amino]-6-methylquinazolin-7-yl}piperidin-1-yl)-4-methyloxolan-3-ol], for which the “LRRK2 pIC50” value stood at 7.14.

Turning to `Cc1cc2cnc(Nc3cnn(C)c3C)nc2cc1C1CCN([C@]2(C)COC[C@@H]2O)CC1` (single isomer, unassigned) [Ex-2.81, (3S,4S) or (3R,4R) 4-(4-{2-[(1,5-dimethyl-1H-pyrazol-4-yl)amino]-6-methylquinazolin-7-yl}piperidin-1-yl)-4-methyloxolan-3-ol], the “LRRK2 pIC50” value worked out at 7.35.

Regarding `Cn1ncc(Nc2ncc3cc(Cl)c(C4CCN([C@]5(C)COC[C@@H]5O)CC4)cc3n2)c1C(F)F` (single isomer, unassigned) [Ex-2.82, (3S,4S) or (3R,4R) 4-[4-(6-chloro-2-{[5-(difluoromethyl)-1-methyl-1H-pyrazol-4-yl]amino}quinazolin-7-yl)piperidin-1-yl]-4-methyloxolan-3-ol], the “LRRK2 pIC50” value is on record as more than 9.20.

`Cn1nc(C(C)(C)C)cc1Nc1ncc2cc(Cl)c(C3CCN([C@]4(C)COC[C@@H]4O)CC3)cc2n1` (single isomer, unassigned) [Ex-2.83, (3S,4S) or (3R,4R) 4-(4-{2-[(3-tert-butyl-1-methyl-1H-pyrazol-5-yl)amino]-6-chloroquinazolin-7-yl}piperidin-1-yl)-4-methyloxolan-3-ol]: the “LRRK2 pIC50” value was determined as 8.71.

For the compound `C[C@@]1(N2CCC(c3cc4nc(Nc5ccnn5C5CC5(F)F)ncc4cc3Cl)CC2)COC[C@@H]1O` (single isomer, unassigned) [Ex-2.84, (S)(3S,4S) or (S)(3R,4R) or (R)(3S,4S) or (R)(3R,4R) 4-[4-(6-chloro-2-{[1-(2,2-difluorocyclopropyl)-1H-pyrazol-5-yl]amino}quinazolin-7-yl)piperidin-1-yl]-4-methyloxolan-3-ol], the “LRRK2 pIC50” value is reported as 8.80.

For `C[C@@]1(N2CCC(c3cc4nc(Nc5ccnn5C5CC5)ncc4cc3Cl)CC2)COC[C@@H]1O` (single isomer, unassigned) [Ex-2.85, (3S,4S) or (3R,4R) 4-(4-{6-chloro-2-[(1-cyclopropyl-1H-pyrazol-5-yl)amino]quinazolin-7-yl}piperidin-1-yl)-4-methyloxolan-3-ol], the “LRRK2 pIC50” value was 9.03.

As to `Cc1nn(C)c(Nc2ncc3cc(Cl)c(C4CCN([C@]5(C)COC[C@@H]5O)CC4)cc3n2)c1C#N` (single isomer, unassigned) [Ex-2.86, (3S,4S) or (3R,4R) 5-({6-chloro-7-[1-(4-hydroxy-3-methyloxolan-3-yl)piperidin-4-yl]quinazolin-2-yl}amino)-l,3-dimethyl-1H-pyrazole-4-carbonitrile], the “LRRK2 pIC50” value stood at 8.05.

Regarding `C[C@@]1(N2CCC(c3cc4nc(Nc5ccnn5C5CC5(F)F)ncc4cc3Cl)CC2)COC[C@@H]1O` (single isomer, unassigned) [Ex-2.87, (S)(3S,4S) or (S)(3R,4R) or (R)(3S,4S) or (R)(3R,4R) 4-[4-(6-chloro-2-{[1-(2,2-difluorocyclopropyl)-1H-pyrazol-5-yl]amino}quinazolin-7-yl)piperidin-1-yl]-4-methyloxolan-3-ol], the “LRRK2 pIC50” value came out at 8.04.

On to `CC1(n2ncc(Nc3ncc4cc(Cl)c(C5CCN([C@]6(C)COC[C@@H]6O)CC5)cc4n3)c2Cl)CC1` (single isomer, unassigned) [Ex-2.88, (3S,4S) or (3R,4R) 4-[4-(6-chloro-2-{[5-chloro-1-(1-methylcyclopropyl)-1H-pyrazol-4-yl]amino}quinazolin-7-yl)piperidin-1-yl]-4-methyloxolan-3-ol], for which the “LRRK2 pIC50” value is more than 9.20.

For the compound `Cn1nc(C(F)(F)F)cc1Nc1ncc2cc(Cl)c(C3CCN([C@]4(C)COC[C@@H]4O)CC3)cc2n1` (single isomer, unassigned) [Ex-2.89, (3S,4S) or (3R,4R) 4-[4-(6-chloro-2-{[1-methyl-3-(trifluoromethyl)-1H-pyrazol-5-yl]amino}quinazolin-7-yl)piperidin-1-yl]-4-methyloxolan-3-ol], the “LRRK2 pIC50” value was determined as 7.39.

With `Cn1ncc(Nc2ncc3cc(Cl)c(C4CCN([C@]5(C)COC[C@@H]5O)CC4)cc3n2)c1C(F)(F)F` (single isomer, unassigned) [Ex-2.90, (3S,4S) or (3R,4R) 4-(4-(6-chloro-2-((1-methyl-5-(trifluoromethyl)-1H-pyrazol-4-yl)amino)quinazolin-7-yl)piperidin-1-yl)-4-methyltetrahydrofuran-3-olyl)piperidin-1-yl]-4-methyloxolan-3-ol], the “LRRK2 pIC50” value is on record as more than 9.20.

The assay is the same for the next values; noted with them: G2019S LRRK2, 134 μM ATP (Km ATP), mean values; read-out: LRRK2 pIC50 (converted).
For `Cc1c(Nc2ncc3cc(Cl)c(C4CCN(C5COC5)CC4)cc3n2)cnn1C1CC1(F)F` (single isomer, unassigned) [Ex-2.73, (S) or (R) 6-chloro-N-[1-(2,2-difluorocyclopropyl)-5-methyl-1H-pyrazol-4-yl]-7-[1-(oxetan-3-yl)piperidin-4-yl]quinazolin-2-amine], the IC50 was 0.955 nM.
